Results reported in patent publication US5547856A, “Hepatocyte growth factor variants” (Genentech, Inc., priority 1993, dated 1996).
Entries after “also recorded” stand apart in the source; their conditions may differ.

Experiments:
[1] = tested on: rat hepatocytes in primary culture; assay: Mitogenic assay: induction of DNA synthesis (3H-TdR incorporation) of rat hepatocytes in primary culture; assay type: cell-based; conditions: for SA +/- mut/wt: Table 3, alterations near or within the hairpin domain; for SA +/- mut/wt / SA var/SA wt +/-S.D. / SA mut/wt +/- SD: * = did not reach the same absolute level as wild-type huHGF; for SA var/SA wt +/-S.D.: Table 1, specific mitogenic activity of variant relative to WT rhuHGF, at least three independent assays; for SA mut/wt +/- SD: Table 2, specific mitogenic activity relative to wt rhuHGF; for residual SA compared to WT rhuHGF: % of WT rhuHGF specific activity
Experimental: The biological activity of WT huHGF and variants was measured by their abilities to induce DNA synthesis of rat hepatocytes in primary culture. […] Briefly, the livers of female Sprague Dawley rats (160-180 g) were perfused through the portal vein with 100 mL of Ca^++ free Hepes buffered saline containing 0.02% Collagenase type IV (Sigma). After 20 minutes the liver was removed, placed in buffer, gently stirred to separate hepatocytes from connective tissue and blood vessels, and filtered through nylon mesh. Cells were then washed by centrifugation, resuspended at 1×10^5 cells/mL in Williams Media E (Gibco) containing Penicillin (100 U/ml), Streptomycin ([…]), L-Glutamine (2 mM), trace elements (0.01%), transfertin ([…]) and Aprotinin ([…]). […] After 48 hours incubation at 37° C., 0.5 mCi 3H-TdR (15 Ci/mmole, Amersham) was added to each well and incubated for an additional 16 hours. Cells were harvested on filter papers, which were washed, dried and counted in a Beckman counter after addition of scintillation liquid. For each huHGF variant, the specific activity (SA) expressed in units/mg was calculated at half-maximal proliferation (defined as 1 unit/mL) using the HGF concentration obtained in ELISA.

[2] = tested on: 145 kDa β-subunit of the HGF receptor in A549 cells; assay: Induction of tyrosine phosphorylation of the HGF receptor on A549 cells (Western blot); assay type: cell-based, human; conditions: serum-starved A549 cells, 200 ng/mL purified protein, 5 minutes
Experimental: FIG. 4: Western blot of ligand-induced tyrosine-phosphorylation on the 145 kDa β-subunit of the HGF receptor by wild-type rhuHGF, single-chain or protease domain huHGF variants. […] Molecular masses (kilodaltons) are as indicated.
Serum-starved cells were incubated without or with 200 ng/mL rhuHGF for 5 minutes at 37° C. and extracted with lysis buffer containing 50 mM Hepes, 150 mM NaCl, 1.5 mM MgCl2, 1 mM EGTA, 10% Glycerol, 1% Triton X-100 and a cocktail of protease inhibitors. The lysates were immunoprecipitated with anti-Met COOH antibodies and blotted with anti-phosphotyrosine antibodies (see Western blotting above).

[3] = molecular target: extracellular domain of the human HGF receptor (huHGFr) fused to the Fc constant region of an human IgG; assay: Soluble HGF receptor competitive binding assay (displacement of 125I-rhuHGF); conditions: for Kdwt/Kdvar +/-S.D.: Table 1, receptor binding capacity relative to WT rhuHGF, at least three independent assays; for Kdwt/mut: Table 2, Kd ratio wild type/mutant; for receptor binding / Kd (in words): compared to WT rhuHGF; for Kd: binding to HGF receptor:IgG fusion protein, calculated at the IC50 from fitted inhibition curves
Experimental: The coding sequence of the extracellular domain of the huHGFr was fused to those of the human IgGl heavy chain in a two-step process. […] The 5' primer (located in the vector upstream of the HeFr coding sequences) and the 3' primer (5'-[…]-3') (SEQ. ID. NO: 21) were used in a 100 μl reaction as described above except that the extension time at 72° C. was 3 minutes, and 40 ng of the full length HGFr expression vector was used as template. […] Sequencing of the construct was carried out as described above.
The binding assay was performed in breakable microtiter plates (Nunc) coated o/n at 4° C. with […] of rabbit-anti-human IgG Fc specific antibody (Jackson Immunoresearch) and plates were carefully washed with PBS containing 0.05% Tween 20 (Biorad). […] To each well […] of serial dilutions (1:25-1:6000) of cell supernatants, purified CHO-expressed rhuHGF ([…]) or medium were added in duplicates. Subsequently, […] of 50 pM of HGF receptor:IgG fusion protein were added and the plates were incubated with gentle shaking. After 4 hours, when equilibrium was reached, plates were washed and wells were individually counted in a gamma-counter. The amount of nonspecifically bound radioactivity was estimated by incubating HGF receptor:IgG with a 500-fold excess of unlabelled rhuHGF.

[4] = tested on: cell surface receptor on hepatocytes; conditions: Higuchi and Nakamura 1991; cited from earlier work

| Substance | SA +/- mut/wt [1] | Kdwt/mut [3] | SA mut/wt +/- SD [1] | further results |
| --- | --- | --- | --- | --- |
| H114A: huHGF variant with alteration near or within the hairpin domain | 0.16 +/- 0.04 | – | – | – |
| R494E | – | – | – | tyrosine phosphorylation of the HGF receptor (in words) [2]: reduced ability to induce phosphorylation of the HGF receptor; also recorded: not efficient in stimulating tyrosine-phosphorylation in A549 cells; Kdwt/Kdvar +/-S.D. [3]: 0.31 +/- 0.13; SA var/SA wt +/-S.D. [1]: < 0.02 |
| K52A: huHGF variant with alteration near or within the hairpin domain | 0.19 +/- 0.03 | – | – | – |
| K52A, D54A: huHGF variant with alterations near or within the hairpin domain | 0.32 +/- 0.03 | – | – | – |
| Q173A: huHGF Kringle 1 domain substitution variant | – | 0.15 +/- 0.05 | 0.13 +/- 0.03 | – |
| Y198A: huHGF Kringle 1 domain substitution variant | – | 0.77 | 0.88 +/- 0.06 | – |
| N72A, R76A, N77A, K78A: huHGF variant with alterations near or within the hairpin domain | 0.04 +/- 0.07 | – | – | – |
| N193A: huHGF Kringle 1 domain substitution variant | – | 0.62 +/- 0.20 | 0.45 +/- 0.12 | – |
| Y673S: huHGF protease domain variant, Y673 replaced with S | – | – | – | Kdwt/Kdvar +/-S.D. [3]: 1.35 +/- 0.72; receptor binding / Kd (in words) [3]: Kd similar to WT rhuHGF; fold reduction of SA compared to wt rhuHGF [1]: approximately 5 fold; maximum plateau of mitogenic response [1]: approximately 50 % of wt rhuHGF plateau; SA var/SA wt +/-S.D. [1]: 0.27 +/- 0.07 |
| F162A, L163A, S165A, S166A: huHGF Kringle 1 domain substitution variant | – | 0.05 +/- 0.02 | < 0.02 | – |
| H114A, E115A, D117A: huHGF variant with alterations near or within the hairpin domain | < 0.02 | – | – | – |
| huHGF: human hepatocyte growth factor as studied in the literature for binding to hepatocytes | – | – | – | Kd [4]: 0.024 to 0.032 nM |
| E115A: huHGF variant with alteration near or within the hairpin domain | 0.20 +/- 0.02 | – | – | – |
| wt rhuHGF: wild-type recombinant human hepatocyte growth factor, 728 amino acid form (Miyazawa et al. 1989) [reference compound] | 1 | 1 | 1 | tyrosine phosphorylation of the HGF receptor (in words) [2]: led to the phosphorylation on tyrosine of the 145 kDa β-subunit of the HGF receptor; Kd [3]: 0.07 nM; Kd ([3]; listed as WT rhuHGF): 0.05 to 0.07 nM |
| D54A: huHGF variant with alteration near or within the hairpin domain | 0.13 +/- 0.01 | – | – | – |
| K137A: huHGF Kringle 1 domain substitution variant | – | 0.98 +/- 0.04 | 1.12 +/- 0.10 | – |
| V692S: huHGF protease domain variant, V692 replaced with S | – | – | – | Kdwt/Kdvar +/-S.D. [3]: 1.02 +/- 0.13; receptor binding / Kd (in words) [3]: Kd similar to WT rhuHGF; fold reduction of SA compared to wt rhuHGF [1]: ~10 fold; maximum plateau of mitogenic response [1]: approximately 50 % of wt rhuHGF plateau; SA var/SA wt +/-S.D. [1]: 0.08 +/- 0.04 |
| R168A: huHGF Kringle 1 domain substitution variant | – | 0.98 +/- 0.04 | 0.83 +/- 0.07 | – |

| Substance | SA +/- mut/wt [1] | Kdwt/mut [3] | SA mut/wt +/- SD [1] | further results |
| --- | --- | --- | --- | --- |
| Q534H, Y673S: huHGF protease domain double variant | – | – | – | Kdwt/Kdvar +/-S.D. [3]: 2.24 +/- 1.11; receptor binding / Kd (in words) [3]: not significantly different from WT rhuHGF; residual SA compared to WT rhuHGF [1]: less than 3%; SA var/SA wt +/-S.D. [1]: < 0.03 |
| Q534H, Y673S, V692S: huHGF protease domain triple variant | – | – | – | Kdwt/Kdvar +/-S.D. [3]: 1.91 +/- 1.28; receptor binding / Kd (in words) [3]: not significantly different from WT rhuHGF; residual SA compared to WT rhuHGF [1]: less than 3%; SA var/SA wt +/-S.D. [1]: < 0.02 |
| D117A: huHGF variant with alteration near or within the hairpin domain | 0.02 | – | – | – |
| N193A, E195A, R197A: huHGF Kringle 1 domain substitution variant | – | < 0.04 | < 0.02 | – |
| Q534H: huHGF protease domain variant, Q534 replaced with H | – | – | – | Kdwt/Kdvar +/-S.D. [3]: 1.48 +/- 0.85; Kd [3]: 0.06 nM; SA var/SA wt +/-S.D. [1]: 1.19 +/- 0.44 |
| Y673S, V692S | – | – | – | tyrosine phosphorylation of the HGF receptor (in words) [2]: reduced ability to induce phosphorylation of the HGF receptor; also recorded: not efficient in stimulating tyrosine-phosphorylation in A549 cells; Kdwt/Kdvar +/-S.D. [3]: 1.76 +/- 0.63; receptor binding / Kd (in words) [3]: not significantly different from WT rhuHGF; residual SA compared to WT rhuHGF [1]: less than 3%; SA var/SA wt +/-S.D. [1]: < 0.02 |
| E159A: huHGF Kringle 1 domain substitution variant | – | < 0.03 | < 0.02 | – |
| K34A, R35A, R36A: huHGF variant with alterations near or within the hairpin domain | 0.71 +/- 0.33 | – | – | – |
| R126A, N127A: huHGF variant with alterations near or within the hairpin domain | 0.33 +/- 0.14 | – | – | – |
| K144A, K148A: huHGF Kringle 1 domain substitution variant | – | 1.03 +/- 0.08 | 0.93 +/- 0.16 | – |
| R181A, E183A, E184A: huHGF Kringle 1 domain substitution variant | – | 0.95 +/- 0.04 | 0.92 +/- 0.08 | – |
| R197A: huHGF Kringle 1 domain substitution variant | – | < 0.03 | < 0.01 | – |
| Q173A, E174A, N175A: huHGF Kringle 1 domain substitution variant | – | 0.21 +/- 0.03 | 0.33 +/- 0.07 | – |
| K58A, K60A, K62A, K63A, N65A: huHGF variant with alterations near or within the hairpin domain | 6.96 +/- 0.12 | – | – | – |
| L163A, S165A, S166A: huHGF Kringle 1 domain substitution variant | – | 1.10 +/- 0.04 | 0.14 +/- 0.08 | – |
| K109A, K110A, E111A: huHGF variant with alterations near or within the hairpin domain | 0.98 +/- 0.04 | – | – | – |
| F162A: huHGF Kringle 1 domain substitution variant | – | 0.05 +/- 0.01 | 0.04 +/- 0.02 | – |
